Measurements taken from patent publication US12194007B2, “Pharmaceutical composition for preventing or treating cancer, comprising gossypol, phenformin, and anticancer agent” (National Cancer Center, priority 2018, dated 2025).
Like-named read-outs stand apart in the source and are kept apart here.

Tests used:
[1] = tested on: A549 cell line xenograft tumor; test: Lung cancer mouse model, tumor growth; format: in vivo, Balb/c-nu mice
[2] = tested on: SK-OV-3 or OVCAR3 cell line; test: SRB cell proliferation assay, ovarian cancer cell lines; format: cell-based; conditions: for synergistic effect of anticancer action when mixed with gossypol and phenformin: ovarian cancer, paclitaxel 50 nM or irinotecan 0.5 μM + gossypol 5 μM + phenformin 100 μM; for synergistic effect of anticancer action when mixed with gossypol and phenformin / degree of cell proliferation with respect to the untreated control: cisplatin 1 nM; for effect of inhibiting cell proliferation in the triple drug treatment group: paclitaxel 50 nM or irinotecan 0.5 μM mixed with gossypol 5 μM and phenformin 100 μM (Tables 17-18, FIGS. 6B, 6C); for degree of cell proliferation with respect to the untreated control: gossypol 5 μM, phenformin 100 μM, single or double (Table 16, FIG. 6A)
[3] = tested on: ACHN cell line or CAKI-1 cell line; test: SRB cell proliferation assay, kidney cancer cell lines; format: cell-based; conditions: for degree of cell proliferation with respect to the untreated control: gossypol 2.5 μM, phenformin 100 μM, sorafenib 10 μM, single, double or triple (Table 1, FIG. 1A)
SNU449 or Huh7 cell line = test: SRB cell proliferation assay, liver cancer cell lines; format: cell-based; conditions: for synergistic effect of anticancer action when mixed with gossypol and phenformin: liver cancer, cisplatin 1 μM or sorafenib 5 μM + gossypol 5 μM + phenformin 100 μM; for degree of cell proliferation with respect to the untreated control: gossypol 5 μM, phenformin 100 μM, cisplatin 1 μM, single or double (Table 22, FIG. 8A)
[4] = tested on: UACC62 cell line or an A375 cell line; test: SRB cell proliferation assay, melanoma cell lines; format: cell-based; conditions: for effect of inhibiting cell proliferation in the triple drug treatment group: cisplatin or oxaliplatin 10 μM mixed with gossypol 5 μM and phenformin 100 μM (Tables 5-6, FIGS. 2B, 2C); for degree of cell proliferation with respect to the untreated control: gossypol 5 μM, phenformin 100 μM, single, double or triple (Table 4, FIG. 2A)
[5] = tested on: HT29 cell line or Colo205 cell line; test: SRB cell proliferation assay, colorectal cancer cell lines; format: cell-based; conditions: for effect of inhibiting cell proliferation in the triple drug treatment group: cisplatin or capecitabine 10 μM mixed with gossypol 2.5 μM and phenformin 75 μM (Tables 8-9, FIGS. 3B, 3C); for synergistic effect of anticancer action when mixed with gossypol and phenformin: colon cancer, irinotecan 1 μM (phenformin 50 μM) or cisplatin/capecitabine 10 μM (phenformin 75 μM) + gossypol 2.5 μM; for degree of cell proliferation with respect to the untreated control: gossypol 2.5 μM, phenformin 50 μM, irinotecan 1 μM, single, double or triple (Table 7, FIG. 3A)
[6] = tested on: A549 cell line or H522 cell line; test: SRB cell proliferation assay, non-small cell lung cancer cell lines; format: cell-based; conditions: for effect of inhibiting cell proliferation in the triple drug treatment group: cisplatin 20 μM or 5-FU 5 μM mixed with gossypol 5 μM and phenformin 100 μM (Tables 11-12, FIGS. 4B, 4C); for synergistic effect of anticancer action when mixed with gossypol and phenformin: lung cancer (NSCLC), cisplatin 20 μM or 5-FU 5 μM + gossypol 5 μM + phenformin 100 μM; for synergistic effect of anticancer action when mixed with gossypol and phenformin / degree of cell proliferation with respect to the untreated control: irinotecan 1 μM; for degree of cell proliferation with respect to the untreated control: gossypol 5 μM, phenformin 100 μM, single, double or triple (Table 10, FIG. 4A)
[7] = tested on: BT549 cell line or MB231 cell line; test: SRB cell proliferation assay, breast cancer cell lines; format: cell-based; conditions: for synergistic effect of anticancer action when mixed with gossypol and phenformin: breast cancer, named agent + gossypol 5 μM + phenformin 100 μM (Tables 13-15); for degree of cell proliferation with respect to the untreated control: gossypol 5 μM, phenformin 100 μM, third agent per Table 13 paclitaxel 50 nM, single, double or triple (FIG. 5A)
[8] = tested on: PC3 cell line or DU145 cell line; test: SRB cell proliferation assay, prostate cancer cell lines; format: cell-based; conditions: for effect of inhibiting cell proliferation in the triple drug treatment group: docetaxel 50 nM or irinotecan 0.5 μM mixed with gossypol 5 μM and phenformin 100 μM (Tables 20-21, FIGS. 7B, 7C)
[9] = tested on: SNU638 cells xenograft tumor; test: Gastric cancer mouse model, tumor growth; format: in vivo, Balb/c-nu mice; conditions: gossypol 80 mg/kg, phenformin 100 mg/kg, irinotecan 30 mg/kg, single, double or triple; vs solvent control (Table 27, FIGS. 12A, 12B)
Description: First, in order to make a lung cancer mouse model, 6 to 8 week old Balb/c-nu mice (Central Lab. Animal, Highland Heights, KY, USA) were prepared. In addition, 7.5×10^6 A549 cell line was cultured, and was injected subcutaneously to the prepared mice with a 1 ml syringe. Mice were reared for 1 week and divided into 4 groups of 8 mice each, and these were used as a control group or an experimental group as defined in [Table 24] and [Table 25]. The solvent or drug was orally administered to the mice of the solvent control group, the double drug treatment group, and the triple drug treatment group once a day, 6 days per week, and while administering intravenously irinotecan to the mice of the single treatment group with irinotecan once a day, 1 day per week, the mice were reared in the same environment for a total of 49 days. While breeding, the average was obtained by checking the weight and size of the tumor of the mouse group every 7 days. After injection of lung cancer cells, the initial tumor size was specified using a calliper. The tumor volume was calculated according to the following [Equation 1].
Specifically, the mouse model with the gastric cancer was prepared by the same method as the method of preparing the lung cancer mouse model in [Example 9], except that the mouse model with the gastric cancer was prepared by xenografting SNU638 cells (1.5×10^7). Then, the prepared mouse model with the gastric cancer was used as a control group or an experimental group as defined in the following [Table 27].

For `Nc1ccn([C@@H]2O[C@H](CO)[C@@H](O)C2(F)F)c(=O)n1` [gemcitabine], the “anticancer synergistic effect of the triple drug administration” value ([1]; gemcitabine 40 mg/kg with gossypol 80 mg/kg and phenformin 100 mg/kg (FIG. 10)) was “not observed” and the “tumor growth (change in tumor size)” value ([1]; gemcitabine experiment: gossypol 80 mg/kg, phenformin 100 mg/kg, gemcitabine 40 mg/kg, single or double (Table 25, FIG. 10)) was “tumor growth at a level similar to that of the solvent administration group”.

For `CC(=O)O[C@H]1C(=O)[C@@]2(C)[C@H]([C@H](OC(=O)c3ccccc3)[C@]3(O)C[C@H](OC(=O)[C@H](O)[C@@H](NC(=O)c4ccccc4)c4ccccc4)C(C)=C1C3(C)C)[C@]1(OC(C)=O)CO[C@@H]1C[C@@H]2O` [paclitaxel], the “synergistic effect of anticancer action when mixed with gossypol and phenformin” value (“synergistic effect of anticancer action” below) [2] was “not exhibited” and the “effect of inhibiting cell proliferation in the triple drug treatment group” value (shortened to “effect of inhibiting cell proliferation”) [2] was “level similar to that of the double drug treatment group”.

For `CNC(=O)c1cc(Oc2ccc(NC(=O)Nc3ccc(Cl)c(C(F)(F)F)c3)cc2)ccn1` [sorafenib], the “degree of cell proliferation with respect to the untreated control” value (shortened to “degree of cell proliferation”) [3] was “proliferation of cancer cells could be inhibited”, the “synergistic effect of anticancer action” value ([3]; renal cell carcinoma, named agent 10 μM + gossypol 2.5 μM + phenformin 100 μM) was “can exhibit a synergistic effect” and the “synergistic effect of anticancer action” value (SNU449 or Huh7 cell line) was “not exhibited”. For the same compound, the “effect of inhibiting cell proliferation” value (SNU449 or Huh7 cell line; sorafenib 5 μM mixed with gossypol 5 μM and phenformin 100 μM (Table 23, FIG. 8B)) was “level similar to that of the double drug treatment group”.

For `N.N.[Cl][Pt][Cl]` [cisplatin], the “effect of inhibiting cell proliferation” value [4] was “level similar to that of the double drug treatment group”, the “synergistic effect of anticancer action” value ([4]; melanoma, vemurafenib 0.5 μM, cisplatin 10 μM or oxaliplatin 10 μM + gossypol 5 μM + phenformin 100 μM) was “not exhibited” and the “effect of inhibiting cell proliferation” value [5] was “level similar to that of the double drug treatment group”. The “synergistic effect of anticancer action” value [5] was “not exhibited”, the “effect of inhibiting cell proliferation” value [6] was “level similar to that of the double drug treatment group” and the “synergistic effect of anticancer action” value [6] was “not exhibited”. The “synergistic effect of anticancer action” value [7] was “not exhibited”, the “effect of inhibiting cell proliferation” value ([7]; cisplatin 1 μM or doxorubicin 1 μM mixed with gossypol 5 μM and phenformin 100 μM (Tables 14-15, FIGS. 5B, 5C)) was “level similar to that of the double drug treatment group” and the “degree of cell proliferation” value [2] was “proliferation of cancer cells could be inhibited at a significant level”. For the same compound, the “synergistic effect of anticancer action” value [2] was “can exhibit a synergistic effect”, the “degree of cell proliferation” value (SNU449 or Huh7 cell line) was “proliferation of cancer cells could be inhibited at a significant level” and the “synergistic effect of anticancer action” value (SNU449 or Huh7 cell line) was “can exhibit a synergistic effect”.

`CC(=O)O[C@@]12CO[C@@H]1C[C@H](O)[C@@]1(C)C(=O)[C@H](O)C3=C(C)[C@@H](OC(=O)[C@H](O)[C@@H](NC(=O)OC(C)(C)C)c4ccccc4)C[C@@](O)([C@@H](OC(=O)c4ccccc4)[C@H]21)C3(C)C` [docetaxel] was tested, and the “effect of inhibiting cell proliferation” value [8] was “level similar to that of the double drug treatment group”.

`NC(N)=N/C(N)=N/CCc1ccccc1` [phenformin] was tested, and the “degree of cell proliferation” value [3] was “proliferation of cancer cells could be inhibited”, the “degree of cell proliferation” value ([4]; vemurafenib 0.5 μM) was “proliferation of cancer cells could be inhibited at a significant level” and the “degree of cell proliferation” value [5] was “proliferation of cancer cells could be inhibited at a significant level”. The “degree of cell proliferation” value [6] was “proliferation of cancer cells could be inhibited at a significant level”, the “degree of cell proliferation” value [7] was “proliferation of cancer cells could be inhibited at a significant level” and the “degree of cell proliferation” value [2] was “proliferation of cancer cells could be inhibited at a significant level”. The “degree of cell proliferation” value ([8]; gossypol 5 μM, phenformin 100 μM, doxorubicin 1 nM, single, double or triple (Table 19, FIG. 7A)) was “proliferation of cancer cells could be inhibited at a significant level”, the “degree of cell proliferation” value (SNU449 or Huh7 cell line) was “proliferation of cancer cells could be inhibited at a significant level” and the “level of tumor growth” value [9] was “a level similar to levels of tumor growth”.

For `O=C1[O][Pt]2([NH][C@@H]3CCCC[C@H]3[NH]2)[O]C1=O` [oxaliplatin], the “effect of inhibiting cell proliferation” value [4] was “level similar to that of the double drug treatment group”.

`CCCCCOC(=O)Nc1nc(=O)n([C@@H]2O[C@H](C)[C@@H](O)[C@H]2O)cc1F` [capecitabine] was tested, and the “effect of inhibiting cell proliferation” value [5] was “level similar to that of the double drug treatment group” and the “synergistic effect of anticancer action” value [5] was “not exhibited”.

For `CCc1c2c(nc3ccc(OC(=O)N4CCC(N5CCCCC5)CC4)cc13)-c1cc3c(c(=O)n1C2)COC(=O)[C@]3(O)CC` [irinotecan], the “synergistic effect of anticancer action” value [5] was “can exhibit a synergistic effect”, the “degree of cell proliferation” value [5] was “proliferation of cancer cells could be inhibited at a significant level” and the “degree of cell proliferation” value [6] was “proliferation of cancer cells could be inhibited at a significant level”. For the same compound, the “synergistic effect of anticancer action” value [6] was “can exhibit a synergistic effect”, the “synergistic effect of anticancer action” value [7] was “can exhibit a synergistic effect” and the “degree of cell proliferation” value [7] was “proliferation of cancer cells could be inhibited at a significant level”. For the same compound, the “synergistic effect of anticancer action” value [2] was “not exhibited”, the “effect of inhibiting cell proliferation” value [2] was “level similar to that of the double drug treatment group” and the “effect of inhibiting cell proliferation” value [8] was “level similar to that of the double drug treatment group”. The “level of tumor growth” value [9] was “significantly decreased the level of tumor growth”.

`O=c1[nH]cc(F)c(=O)[nH]1` [5-FU, 5-fluorouracil] was tested, and the “effect of inhibiting cell proliferation” value [6] was “level similar to that of the double drug treatment group” and the “synergistic effect of anticancer action” value [6] was “not exhibited”.

In the case of `Cc1cc2c(C(C)C)c(O)c(O)c(C=O)c2c(O)c1-c1c(C)cc2c(C(C)C)c(O)c(O)c(C=O)c2c1O` [gossypol], the “degree of cell proliferation” value [3] is reported as “proliferation of cancer cells could be inhibited”, the “degree of cell proliferation” value ([4]; vemurafenib 0.5 μM) is reported as “proliferation of cancer cells could be inhibited at a significant level” and the “degree of cell proliferation” value [5] is reported as “proliferation of cancer cells could be inhibited at a significant level”. For the same compound, the “degree of cell proliferation” value [6] was “proliferation of cancer cells could be inhibited at a significant level”, the “degree of cell proliferation” value [7] was “proliferation of cancer cells could be inhibited at a significant level” and the “degree of cell proliferation” value [2] was “proliferation of cancer cells could be inhibited at a significant level”. For the same compound, the “degree of cell proliferation” value [8] was “proliferation of cancer cells could be inhibited at a significant level”, the “degree of cell proliferation” value (SNU449 or Huh7 cell line) was “proliferation of cancer cells could be inhibited at a significant level” and the “level of tumor growth” value [9] was “a level similar to levels of tumor growth”.
